In patent publication US20250018052A1, “ANTI-HER3 ANTIBODY DRUG CONJUGATE, COMPOSITION THEREOF, AND USE THEREOF” (CHIA TAI TIANQING PHARMACEUTICAL GROUP CO., LTD., priority 2021, published 2025):

Key:
[1] = test system: NCI-N87 cells with medium HER3 expression level; assay: Cell killing activity (CellTiter-Glo), NCI-N87; type: cell-based; details: cultured for 96 h, 120 h, or 144 h
Protocol: (§1) Cells in the logarithmic growth phase were added to a 96-well plate at 100 μL/well, and the cell density was 1×10^4/mL or […]. Adherence culture was carried out at 37° C. and 5% CO2 overnight. Sample preparation: the patritumab-eribulin conjugates were each formulated into test samples with a basal medium containing 10% FBS (initial concentration of 5 μg/mL, 5-fold gradient dilution, nine gradients). Cells subjected to overnight adherence culture were taken out. For the experimental groups, the diluted test sample was added at 50 μL/well, and for the control group, the basal medium containing 10% FBS was added at 50 µL/well. The cells were then cultured for 96 h, 120 h, or 144 h, and then a CellTiter-Glo Luminescent Cell kit (Promega, Cat No.: G7572) was used for assay. The 96-well plate was taken out, the CTG detection solution (Promega. Cat No.: G7572) was added at 75 μL/well, and the mixture was well mixed by shaking and incubated at room temperature in the dark for 10 min. Then 180 μL of solution was pipetted from each well and transferred to an opaque white plate, bubbles were removed, chemiluminescence values were read, and killing rates were calculated.
(§2) Data were analyzed using Graphpad Prism5.

[2] = test system: JIMT-1 human breast cancer cells; assay: Nude mouse subcutaneous xenograft tumor model of JIMT-1 human breast cancer cells; type: in vivo, nude mice; details: 3 mg/kg, tail vein injection, Q1W, d21; for Tumor growth inhibition rate 1-T/C: from relative tumor volume; for Tumor inhibition rate TGI: from tumor weight
Protocol: The in vivo efficacy of the patritumab-eribulin conjugates prepared in Example 4 above was evaluated by the nude mouse subcutaneous xenograft tumor models of JIMT-1 human breast cancer cells, a trastuzumab-resistant cell strain.
SPF-grade female nude mice (from Changzhou Cavens Laboratory Animal Ltd.) were inoculated subcutaneously at the right side armpit with 2×10^6 JIMT-1 cells per mouse. When the mean tumor volume reached […], the animals were divided into 5 groups of 6, and the specific grouping and administration regimen are shown in Table 6.
The day of grouping was do, and the tail vein administration was performed at d1 after grouping. The tumor volume was measured 2-3 times a week, and meanwhile, the mice were weighed and the data were recorded; the general behavior of the mice was observed and recorded every day. After the experiment was completed, the tumors were removed, weighed, and photographed.

[3] = test system: HCC1569 cells with high HER3 expression level; assay: Cell killing activity (CellTiter-Glo), HCC1569; type: cell-based; details: cultured for 96 h, 120 h, or 144 h
Protocol: as §1, §2

[4] = test system: SKBR3 cells with medium HER3 expression level; assay: Cell killing activity (CellTiter-Glo), SKBR3; type: cell-based; details: cultured for 96 h, 120 h, or 144 h
Protocol: as §1, §2

[5] = test system: BT474 cells with high HER3 expression level; assay: Cell killing activity (CellTiter-Glo), BT474; type: cell-based; details: cultured for 96 h, 120 h, or 144 h
Protocol: as §1, §2

[6] = test system: MDA-MB-468 cells with medium HER3 expression level; assay: Cell killing activity (CellTiter-Glo), MDA-MB-468; type: cell-based; details: cultured for 96 h, 120 h, or 144 h
Protocol: as §1, §2

[7] = test system: JIMT-1 cells with medium HER3 expression level; assay: Cell killing activity (CellTiter-Glo), JIMT-1; type: cell-based, human; details: cultured for 96 h, 120 h, or 144 h
Protocol: as §1, §2

[8] = test system: MCF-7 cells with high HER3 expression level; assay: Cell killing activity (CellTiter-Glo), MCF-7; type: cell-based; details: cultured for 96 h, 120 h, or 144 h
Protocol: as §1, §2

Substance | EC50 [1] | Tumor growth inhibition rate 1-T/C [2] | Tumor inhibition rate TGI [2] | EC50 [3] | EC50 [4] | EC50 [5] | EC50 [6] | EC50 [7] | EC50 [8]
Patritumab-DDDXd-D8: patritumab-DDDXd conjugate (MC-GGFG-DDDXd, deuterated MC-GGFG-DXd) with a DAR of 7.9, used as control [reference compound] | 371 pM | 24.4% | 26.6% | 18300 pM | 57800 pM | 10400 pM | – | – | –
Patritumab-eribulin-D8: patritumab-eribulin conjugate (MC-GGFG-eribulin linker-payload) with a DAR of 7.6 | 690 pM | 82.9% | 84.3% | 246 pM | 23.2 pM | 18.1 pM | 321 pM | 946 pM | 36.1 pM
Patritumab-eribulin-D2: patritumab-eribulin conjugate (MC-GGFG-eribulin linker-payload) with a DAR of 2.6 | – | 36.6% | 41.1% | 3600 pM | 194 pM | 93.5 pM | 12100 pM | 10500 pM | 1170 pM
Patritumab-eribulin-D4: patritumab-eribulin conjugate (MC-GGFG-eribulin linker-payload) with DAR of 4.0-4.2 | 13900 pM | 65.9% | 68.9% | 778 pM | 43 pM | 39.8 pM | 1410 pM | 3270 pM | 99.4 pM
